Among the data in patent US8148391B2 (Cephalon, Inc., priority 2006, dated 2012) are IC50 values, retold here.

In assay [1] the target is T1, baculovirus-expressed ALK (Homo sapiens, UniProt Q9UM73).
T1 construct: host or cells: baculovirus expression system
In words: ALK Kinase Assay (ELISA-type, time-resolved fluorescence). The conditions noted are these: ALK kinase inhibition, 1 μM ATP (Km level); read-out: ALK Activity. In kind it is biochemical. In a few lines: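 Substrate coating: phospholipase C-γ, 10 μg/mL in TBS. Kinase step: 30 ng/ml ALK, 15 min, 37° C. Detection and analysis: Eu-N1 PT66 antibody, with IC50 fitted as a sigmoidal variable-slope dose-response curve.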
For orientation: An ELISA detects its analyte on a solid surface through an enzyme-linked reagent.

The target in assay [2] is T2, c-Met (cytoplasmic domain) (Homo sapiens, UniProt P08581).
T2 construct: 10 ng/mL c-Met (cytoplasmic domain, Invitrogen Corporation #PV3143); purchased Invitrogen Corporation PV3143
In words: c-Met Kinase Assay (same methods as for ALK, with modifications). In kind it is biochemical. The note with it: c-Met kinase inhibition, 1 μM ATP (Km level); read-out: cMet Activity. The method in brief:
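Wells were coated with 10 μg/mL phospholipase C-γ substrate in TBS, and reactions were started with 10 ng/mL c-Met cytoplasmic domain and run at 37° C for 15 minutes. Phosphorylated product was detected with Eu-N1-labeled PT66 antibody. IC50 values came from sigmoidal variable-slope fits of percent inhibition versus log compound concentration.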

T1 sequence (Q9UM73 19-1620): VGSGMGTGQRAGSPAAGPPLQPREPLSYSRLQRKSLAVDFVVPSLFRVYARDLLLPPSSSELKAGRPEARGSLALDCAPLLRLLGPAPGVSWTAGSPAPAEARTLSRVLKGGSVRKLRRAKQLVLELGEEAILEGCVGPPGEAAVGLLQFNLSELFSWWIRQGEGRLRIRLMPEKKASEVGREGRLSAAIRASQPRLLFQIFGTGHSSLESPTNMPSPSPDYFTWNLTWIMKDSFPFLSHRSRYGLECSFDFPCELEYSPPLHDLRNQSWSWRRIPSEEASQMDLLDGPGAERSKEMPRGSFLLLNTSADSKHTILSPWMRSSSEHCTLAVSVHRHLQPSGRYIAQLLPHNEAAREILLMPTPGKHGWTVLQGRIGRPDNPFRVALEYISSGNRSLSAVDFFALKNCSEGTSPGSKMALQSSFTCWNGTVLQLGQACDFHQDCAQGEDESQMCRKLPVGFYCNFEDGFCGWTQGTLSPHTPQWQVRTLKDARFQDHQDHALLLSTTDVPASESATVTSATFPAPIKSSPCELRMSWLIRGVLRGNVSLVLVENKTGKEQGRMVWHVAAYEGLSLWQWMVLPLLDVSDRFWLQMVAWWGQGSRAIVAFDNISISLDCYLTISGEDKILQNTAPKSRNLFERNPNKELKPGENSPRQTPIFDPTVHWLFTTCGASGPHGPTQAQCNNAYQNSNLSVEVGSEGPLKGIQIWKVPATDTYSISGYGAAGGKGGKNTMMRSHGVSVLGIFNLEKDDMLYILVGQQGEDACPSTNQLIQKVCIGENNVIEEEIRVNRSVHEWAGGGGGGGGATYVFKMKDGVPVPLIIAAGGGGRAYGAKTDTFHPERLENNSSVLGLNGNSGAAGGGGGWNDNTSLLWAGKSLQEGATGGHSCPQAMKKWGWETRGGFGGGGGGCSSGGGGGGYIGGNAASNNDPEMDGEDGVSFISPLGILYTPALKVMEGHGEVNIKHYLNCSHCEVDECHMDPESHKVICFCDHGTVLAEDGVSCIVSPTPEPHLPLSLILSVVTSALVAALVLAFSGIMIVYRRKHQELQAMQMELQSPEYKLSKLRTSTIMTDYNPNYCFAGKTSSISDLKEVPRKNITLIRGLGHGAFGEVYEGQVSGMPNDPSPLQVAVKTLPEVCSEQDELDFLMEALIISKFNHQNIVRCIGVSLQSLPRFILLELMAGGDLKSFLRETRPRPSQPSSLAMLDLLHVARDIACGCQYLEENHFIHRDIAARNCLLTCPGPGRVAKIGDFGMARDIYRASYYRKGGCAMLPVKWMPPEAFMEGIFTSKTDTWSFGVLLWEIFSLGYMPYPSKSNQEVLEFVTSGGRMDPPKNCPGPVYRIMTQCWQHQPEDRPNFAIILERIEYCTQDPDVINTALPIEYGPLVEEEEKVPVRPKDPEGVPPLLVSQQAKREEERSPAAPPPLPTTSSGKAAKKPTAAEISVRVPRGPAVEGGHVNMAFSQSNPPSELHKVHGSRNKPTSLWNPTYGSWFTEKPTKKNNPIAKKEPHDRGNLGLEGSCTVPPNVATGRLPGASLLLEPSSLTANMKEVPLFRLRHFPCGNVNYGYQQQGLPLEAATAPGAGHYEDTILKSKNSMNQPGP
T2 sequence (P08581 956-1390 limits assumed): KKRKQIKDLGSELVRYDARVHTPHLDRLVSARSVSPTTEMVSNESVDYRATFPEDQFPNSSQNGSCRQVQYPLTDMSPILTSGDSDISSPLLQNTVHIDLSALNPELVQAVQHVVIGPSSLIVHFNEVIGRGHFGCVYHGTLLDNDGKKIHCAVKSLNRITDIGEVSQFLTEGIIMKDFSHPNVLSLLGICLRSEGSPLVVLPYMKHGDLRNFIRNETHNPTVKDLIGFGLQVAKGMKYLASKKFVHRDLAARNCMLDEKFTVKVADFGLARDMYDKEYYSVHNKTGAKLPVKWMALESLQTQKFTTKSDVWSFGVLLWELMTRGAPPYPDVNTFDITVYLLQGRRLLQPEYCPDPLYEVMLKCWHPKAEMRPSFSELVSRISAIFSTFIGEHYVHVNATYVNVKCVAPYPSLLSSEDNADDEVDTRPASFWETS

As for `CNC(=O)c1cc(Cl)cc(Cl)c1Nc1nc(Nc2ccc3c(c2)CCN(CCOC)CC3)ncc1Cl` [Example 314, 3,5-Dichloro-2-{5-chloro-2-[3-(2-methoxy-ethyl)-2,3,4,5-tetrahydro-1H-benzo[d]azepin-7-ylamino]-pyrimidin-4-ylamino}-N-methyl-benzamide], the IC50 in assay [1] was 100 to 1000 nM; in assay [2], below 100 nM.
On the same counts, the results for `CNC(=O)c1cccc(OC)c1Nc1nc(Nc2ccc3c(c2)CCN(CCOC)CC3)ncc1Cl` [Example 315, 2-{5-Chloro-2-[3-(2-methoxy-ethyl)-2,3,4,5-tetrahydro-1H-benzo[d]azepin-7-ylamino]-pyrimidin-4-ylamino}-3-methoxy-N-methyl-benzamide] are 100 to 1000 nM and 100 to 1000 nM.
In the same order, the values of `COCCN1CCc2ccc(Nc3ncc(Cl)c(Nc4ccccc4-n4cccn4)n3)cc2CC1` [Example 316, 5-Chloro-N*2*-[3-(2-methoxy-ethyl)-2,3,4,5-tetrahydro-1H-benzo[d]azepin-7-yl]-N*4*-(2-pyrazol-1-yl-phenyl)-pyrimidine-2,4-diamine] are below 100 nM and 100 to 1000 nM.
In the same order, the values of `CNC(=O)c1cc(C)cc(C)c1Nc1nc(Nc2ccc3c(c2)CCN(CCOC)CC3)ncc1Cl` [Example 317, 2-{5-Chloro-2-[3-(2-methoxy-ethyl)-2,3,4,5-tetrahydro-1H-benzo[d]azepin-7-ylamino]-pyrimidin-4-ylamino}-3,5,N-trimethyl-benzamide] are 100 to 1000 nM and 100 to 1000 nM.
As for `COc1cc(N2CCOCC2)ccc1Nc1nc(Nc2ccc3c(c2)CCN(S(C)(=O)=O)CC3)ncc1Cl` [Example 320, 5-Chloro-N*2*-(3-methanesulfonyl-2,3,4,5-tetrahydro-1H-benzo[d]azepin-7-yl]-N*4*-(2-methoxy-4-morpholin-4-yl-phenyl)-pyrimidine-2,4-diamine], the figures for the IC50 in assay [1] and in assay [2] were below 100 nM and 1000 to 10000 nM, respectively.
For the molecule `CS(=O)(=O)N1CCc2ccc(Nc3ncc(Cl)c(NC4C5C=CC(C5)C4C(N)=O)n3)cc2CC1` (stereo not drawn) [Example 321, (2-exo, 3-exo)-3-[5-Chloro-2-(3-methanesulfonyl-2,3,4,5-tetrahydro-1H-benzo[d]azepin-7-ylamino)-pyrimidin-4-ylamino]-bicyclo[2.2.1]hept-5-ene-2-carboxylic acid amide], the IC50 in assay [1] was below 100 nM; in assay [2], 100 to 1000 nM.
On the same counts, the results for `C#CCN1CCc2ccc(Nc3ncc(Cl)c(Nc4ccccc4C(=O)NC)n3)cc2CC1` [Example 322, 2-[5-Chloro-2-(3-prop-2-ynyl-2,3,4,5-tetrahydro-1H-benzo[d]azepin-7-ylamino)-pyrimidin-4-ylamino]-N-methyl-benzamide] are below 100 nM and below 100 nM.
As to `C#CCN1CCc2ccc(Nc3ncc(Cl)c(Nc4ccc(N5CCOCC5)cc4OC)n3)cc2CC1` [Example 324, 5-Chloro-N*4*-(2-methoxy-4-morpholin-4-yl-phenyl)-N*2*-(3-prop-2-ynyl-2,3,4,5-tetrahydro-1H-benzo[d]azepin-7-yl)-pyrimidine-2,4-diamine], the IC50 was below 100 nM in assay [1] and 1000 to 10000 nM in assay [2].
On the same counts, the results for `C#CCN1CCc2ccc(Nc3ncc(Cl)c(N[C@@H]4CCCC[C@H]4NS(C)(=O)=O)n3)cc2CC1` [Example 325, N-{(1R,2R)-2-[5-Chloro-2-(3-prop-2-ynyl-2,3,4,5-tetrahydro-1H-benzo[d]azepin-7-ylamino)-pyrimidin-4-ylamino]-cyclohexyl}-methanesulfonamide] are below 100 nM and 100 to 1000 nM.
In the same order, the values of `C#CCN1CCc2ccc(Nc3ncc(Cl)c(Nc4ccccc4NS(C)(=O)=O)n3)cc2CC1` [Example 326, N-{2-[5-Chloro-2-(3-prop-2-ynyl-2,3,4,5-tetrahydro-1H-benzo[d]azepin-7-ylamino)-pyrimidin-4-ylamino]-phenyl}-methanesulfonamide] are below 100 nM and 100 to 1000 nM.
Take `CNC(=O)c1ccccc1Nc1nc(Nc2ccc3c(c2)CCN(C(=O)N(C)C)CC3)ncc1Cl` [Example 327, 7-[5-Chloro-4-(2-methylcarbamoyl-phenylamino)-pyrimidin-2-ylamino]-1,2,4,5-tetrahydro-benzo[d]azepine-3-carboxylic acid dimethylamide]: the IC50 in assay [1] and in assay [2] was below 100 nM in each case.
For the molecule `CNC(=O)c1ccccc1Nc1nc(Nc2ccc3c(c2)CCN(C[C@H](O)C(F)(F)F)CC3)ncc1Cl` [Example 328, 2-{5-Chloro-2-[3-((S)-3,3,3-trifluoro-2-hydroxy-propyl)-2,3,4,5-tetrahydro-1H-benzo[d]azepin-7-ylamino]-pyrimidin-4-ylamino}-N-methyl-benzamide], the IC50 in assay [1] and in assay [2] was below 100 nM in each case.
As for `CS(=O)(=O)N[C@@H]1CCCC[C@H]1Nc1nc(Nc2ccc3c(c2)CCN(C[C@H](O)C(F)(F)F)CC3)ncc1Cl` [Example 329, N-((1R,2R)-2-{5-Chloro-2-[3-((S)-3,3,3-trifluoro-2-hydroxy-propyl)-2,3,4,5-tetrahydro-1H-benzo[d]azepin-7-ylamino]-pyrimidin-4-ylamino}-cyclohexyl)-methanesulfonamide], the results for the IC50 in assay [1] and in assay [2] were below 100 nM and 1000 to 10000 nM, respectively.
For `COc1cc(N2CCOCC2)ccc1Nc1nc(Nc2ccc3c(c2)CCN(C[C@H](O)C(F)(F)F)CC3)ncc1Cl` [Example 330, (S)-3-{7-[5-Chloro-4-(2-methoxy-4-morpholin-4-yl-phenylamino)-pyrimidin-2-ylamino]-1,2,4,5-tetrahydro-benzo[d]azepin-3-yl}-1,1,1-trifluoro-propan-2-ol], the values for the IC50 in assay [1] and in assay [2] were below 100 nM and above 10000 nM, respectively.
Take `NC(=O)C1C2CCC(C2)C1Nc1nc(Nc2ccc3c(c2)CCN(CC(O)C(F)(F)F)CC3)ncc1Cl` [Example 331, (2-exo,3-exo)-3-{5-Chloro-2-[3-((S)-3,3,3-trifluoro-2-hydroxy-propyl)-2,3,4,5-tetrahydro-1H-benzo[d]azepin-7-ylamino]-pyrimidin-4-ylamino}-bicyclo[2.2.1]heptane-2-carboxylic acid amide]: the IC50 was below 100 nM in assay [1] and 100 to 1000 nM in assay [2].
In the same order, the values of `CNC(=O)c1cccc(F)c1Nc1nc(Nc2ccc3c(c2)CCN(C[C@@H](O)C(F)(F)F)CC3)ncc1Cl` [Example 332, 2-{5-Chloro-2-[3-((R)-3,3,3-trifluoro-2-hydroxy-propyl)-2,3,4,5-tetrahydro-1H-benzo[d]azepin-7-ylamino]-pyrimidin-4-ylamino}-3-fluoro-N-methyl-benzamide] are below 100 nM and below 100 nM.
For the molecule `COc1cc(N2CCOCC2)ccc1Nc1nc(Nc2ccc3c(c2)CCN(C[C@@H](O)C(F)(F)F)CC3)ncc1Cl` [Example 333, (R)-3-{7-[5-Chloro-4-(2-methoxy-4-morpholin-4-yl-phenylamino)-pyrimidin-2-ylamino]-1,2,4,5-tetrahydro-benzo[d]azepin-3-yl}-1,1,1-trifluoro-propan-2-ol], the IC50 in assay [1] was below 100 nM; in assay [2] it was 1000 to 10000 nM.
On the same counts, the results for `CNC(=O)c1ccccc1Nc1nc(Nc2ccc3c(c2)CCN(C[C@H](OC)C(F)(F)F)CC3)ncc1Cl` [Example 335, 2-{5-Chloro-2-[3-((S)-3,3,3-trifluoro-2-methoxy-propyl)-2,3,4,5-tetrahydro-1H-benzo[d]azepin-7-ylamino]-pyrimidin-4-ylamino}-N-methyl-benzamide] are below 100 nM and below 100 nM.
With `CO[C@@H](CN1CCc2ccc(Nc3ncc(Cl)c(N[C@@H]4CCCC[C@H]4NS(C)(=O)=O)n3)cc2CC1)C(F)(F)F` [Example 336, N-((1R,2R)-2-{5-Chloro-2-[3-((S)-3,3,3-trifluoro-2-methoxy-propyl)-2,3,4,5-tetrahydro-1H-benzo[d]azepin-7-ylamino]-pyrimidin-4-ylamino}-cyclohexyl)-methanesulfonamide], the IC50 was below 100 nM in assay [1] and 100 to 1000 nM in assay [2].
In the same order, the values of `COc1cc(N2CCOCC2)ccc1Nc1nc(Nc2ccc3c(c2)CCN(C[C@H](OC)C(F)(F)F)CC3)ncc1Cl` [Example 337, 5-Chloro-N*4*-(2-methoxy-4-morpholin-4-yl-phenyl)-N*2*-[-((S)-3,3,3-trifluoro-2-methoxy-propyl)-2,3,4,5-tetrahydro-1H-benzo[d]azepin-7-yl]-pyrimidine-2,4-diamine] are below 100 nM and above 10000 nM.
In the same order, the values of `CCNC(=O)c1ccccc1Nc1nc(Nc2ccc3c(c2)C(C)(C)CCC(=O)N3)ncc1Cl` [Example 339] are below 100 nM and below 100 nM.
In the same order, the values of `CC(C)NC(=O)c1ccccc1Nc1nc(Nc2ccc3c(c2)C(C)(C)CCC(=O)N3)ncc1Cl` [Example 340] are below 100 nM and 100 to 1000 nM.
With `CC1(C)CCC(=O)Nc2ccc(Nc3ncc(Cl)c(Nc4ccccc4C(=O)NC4CC4)n3)cc21` [Example 341], the IC50 was below 100 nM in assay [1] and 100 to 1000 nM in assay [2].
As for `COCCN1CCc2ccc(Nc3ncc(Cl)c(Nc4ccccc4C(=O)NC(C)C)n3)cc2CC1` [Example 342, 2-{5-Chloro-2-[3-(2-methoxy-ethyl)-2,3,4,5-tetrahydro-1H-benzo[d]azepin-7-ylamino]-pyrimidin-4-ylamino}-N-isopropyl-benzamide], the IC50 is below 100 nM in assay [1] and 100 to 1000 nM in assay [2].
On to `CCNC(=O)c1ccccc1Nc1nc(Nc2ccc3c(c2)CCN(CCOC)CC3)ncc1Cl` [Example 343, 2-{5-Chloro-2-[3-(2-methoxy-ethyl)-2,3,4,5-tetrahydro-1H-benzo[d]azepin-7-ylamino]-pyrimidin-4-ylamino}-N-ethyl-benzamide], for which the IC50 in assay [1] and in assay [2] was below 100 nM throughout.
